Source: article PMC8112869, “Therapeutic inhibition of keratinocyte TRPV3 sensory channel by local anesthetic dyclonine” (eLife, 2021)

How the values were obtained:
Format in all cases: cell-based
TRPV3 I637A = biological target: T1, TRPV3 I637A (Mus musculus, UniProt Q8K424, I637A); assay: Whole-cell recording of TRPV3 mutant I637A in HEK 293T cells; conditions: 2-APB (1 mM)-evoked, –60 mV, read-out: IC50 for inhibition of TRPV3 mutant
T1 construct: expressed in transfected cells; host or cells: HEK 293T
Excerpt: (§1) The WT mouse TRPV3 (mTRPV3), human TRPV3 (hTRPV3), rat TRPV1, rat TRPV2, rat TRPM8, and mouse TRPA1 cDNAs were generously provided by Dr. Feng Qin (State University of New York at Buffalo, Buffalo, USA). The GFP-mTRPV3 WT and the mutants (mTRPV3-G573S and mTRPV3-G573C) in pcDNA4/TO vector were gifts from Dr. Michael X Zhu (The University of Texas Health Science Center at Houston, Houston, USA). The WT fTRPV3 was kindly provided by Dr. Makoto Tominaga (Department of Physiological Sciences, SOKENDAI, Okazaki, Japan). All mutations were made using the overlap-extension polymerase chain reaction method as previously described ([Tian et al., 2019]). The resulting mutations were then verified by DNA sequencing. […]
(§2) Conventional whole-cell and excised patch-clamp recording methods were used. […] For a subset of recordings, currents were amplified using an Axopatch 200B amplifier (Molecular Devices, Sunnyvale, CA) and recorded through a BNC-2090/MIO acquisition system (National Instruments, Austin, TX) using QStudio developed by Dr. Feng Qin at State University of New York at Buffalo. […] As determined by the conductance tests, the solution around a patch under study was fully controlled by the application of a flow rate of 100 μl/min or greater. […]

TRPV3 L630W = biological target: T2, TRPV3 L630W (Mus musculus, UniProt Q8K424, L630W); assay: Whole-cell recording of TRPV3 mutant L630W in HEK 293T cells; conditions: 2-APB (1 mM)-evoked, –60 mV, read-out: IC50 for inhibition of TRPV3 mutant
T2 construct: expressed in transfected cells; host or cells: HEK 293T
Excerpt: as §1, §2

human TRPV3 (hTRPV3) = biological target: T3, human TRPV3 (hTRPV3) (Homo sapiens, UniProt Q8NET8); assay: Whole-cell recording of 2-APB-evoked currents in hTRPV3-expressing HEK 293T cells
T3 construct: expressed in transfected cells; host or cells: HEK 293T
Excerpt: as §1, §2

TRPV3 (G573S) = biological target: T4, TRPV3 (G573S) (Mus musculus, UniProt Q8K424, G573S); assay: Whole-cell currents of TRPV3 (G573S) expressed in T-Rex 293 cells
T4 construct: expressed in transfected cells; host or cells: T-Rex 293
Excerpt: as §1, §2

T3 sequence (Q8NET8 whole entry): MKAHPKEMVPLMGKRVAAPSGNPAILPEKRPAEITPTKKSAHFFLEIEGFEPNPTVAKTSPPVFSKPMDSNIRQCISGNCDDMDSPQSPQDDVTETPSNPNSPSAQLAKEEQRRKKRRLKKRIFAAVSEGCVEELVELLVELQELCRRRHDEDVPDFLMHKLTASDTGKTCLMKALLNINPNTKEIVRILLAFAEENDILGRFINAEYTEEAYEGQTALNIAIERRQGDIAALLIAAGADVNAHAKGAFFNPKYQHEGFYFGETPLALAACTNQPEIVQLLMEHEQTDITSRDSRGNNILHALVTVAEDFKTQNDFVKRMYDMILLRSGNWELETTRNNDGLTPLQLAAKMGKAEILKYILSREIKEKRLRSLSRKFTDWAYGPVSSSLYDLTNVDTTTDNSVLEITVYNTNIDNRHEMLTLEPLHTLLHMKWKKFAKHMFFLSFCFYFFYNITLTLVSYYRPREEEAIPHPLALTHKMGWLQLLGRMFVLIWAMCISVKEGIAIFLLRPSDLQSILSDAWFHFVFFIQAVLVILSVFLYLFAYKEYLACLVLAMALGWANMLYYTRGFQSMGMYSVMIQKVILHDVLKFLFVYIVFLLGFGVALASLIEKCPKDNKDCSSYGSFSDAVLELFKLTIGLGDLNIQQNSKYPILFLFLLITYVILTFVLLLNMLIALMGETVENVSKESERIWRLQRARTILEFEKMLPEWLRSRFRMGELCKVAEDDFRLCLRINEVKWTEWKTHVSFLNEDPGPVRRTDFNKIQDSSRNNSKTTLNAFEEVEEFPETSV
T4 sequence (Q8K424 whole entry G573S): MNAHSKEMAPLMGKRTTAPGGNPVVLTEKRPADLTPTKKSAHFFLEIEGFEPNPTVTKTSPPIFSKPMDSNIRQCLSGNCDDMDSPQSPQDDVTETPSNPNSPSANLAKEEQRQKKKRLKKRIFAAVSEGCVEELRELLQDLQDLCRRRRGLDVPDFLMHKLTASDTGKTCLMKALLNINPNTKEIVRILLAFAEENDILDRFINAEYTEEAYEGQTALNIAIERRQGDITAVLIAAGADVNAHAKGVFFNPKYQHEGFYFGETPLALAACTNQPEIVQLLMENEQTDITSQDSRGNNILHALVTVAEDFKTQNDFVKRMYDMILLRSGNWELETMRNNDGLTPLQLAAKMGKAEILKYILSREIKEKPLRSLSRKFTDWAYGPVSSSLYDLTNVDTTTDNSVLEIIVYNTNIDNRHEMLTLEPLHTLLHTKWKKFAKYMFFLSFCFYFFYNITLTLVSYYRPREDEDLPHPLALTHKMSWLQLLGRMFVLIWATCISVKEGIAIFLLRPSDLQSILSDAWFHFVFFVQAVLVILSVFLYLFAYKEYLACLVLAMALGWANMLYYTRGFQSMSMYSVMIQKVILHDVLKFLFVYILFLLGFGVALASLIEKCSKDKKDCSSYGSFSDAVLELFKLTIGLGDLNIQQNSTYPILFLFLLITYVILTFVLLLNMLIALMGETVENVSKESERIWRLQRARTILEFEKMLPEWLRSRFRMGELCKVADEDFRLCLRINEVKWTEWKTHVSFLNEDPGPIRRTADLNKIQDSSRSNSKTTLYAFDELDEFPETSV
T2 sequence (Q8K424 whole entry L630W): as the sequence (Q8K424 whole entry G573S) above, with S573G, L630W counted along it
T1 sequence (Q8K424 whole entry I637A): as the sequence (Q8K424 whole entry G573S) above, with S573G, I637A counted along it

- IC50 (TRPV3 I637A): 6.1 ± 0.43 µM
- IC50 (TRPV3 L630W): 30.8 ± 2.2 µM
- Hill coefficient nH (human TRPV3 (hTRPV3)): 1.91 ± 0.14
- IC50 (human TRPV3 (hTRPV3); 2-APB (100 μM)-evoked, –60 mV, read-out: IC50 on blocking of hTRPV3): 16.2 ± 0.72 µM
- reduction of spontaneous activities (TRPV3 (G573S); 10 μM dyclonine, –60 mV, leak subtracted with 20 μM RR): 74% ± 3%
- 300 μM 2-APB-evoked responses, of control level (TRPV3 (G573S); presence of dyclonine): 10% ± 2%
Compound: CCCCOc1ccc(C(=O)CCN2CCCCC2)cc1 [dyclonine]
